Assay [1] has as its target Lysine-specific histone demethylase 1A (Homo sapiens) (UniProt O60341). The assay is classed as cell-based. As to conditions: HCT-116, dose 0.063-1 µM, time 48.0 hrs.
For assay [2] the target is unchanged. The assay is classed as tissue-based. To be noted: Colorectal cancer organoid, dose 0.313-5 µM, time 10.0 day.
The target is the same in assay [3]. The assay is classed as tissue-based. As to conditions: Colorectal cancer organoid, dose > 2.5 µM, time 10.0 day.
For assay [4], the target named is T1, Histone deacetylase (Homo sapiens) (UniProt Q13547+O15379+Q9UBN7+Q92769+Q9UQL6+Q8WUI4+Q9BY41+Q96DB2+P56524+Q9UKV0+Q969S8). Nature of the assay: Inhibition of HDAC in patient-derived human Colorectal cancer organoid assessed as increase in acetyl-tubulin level at 0.313 to 5 uM treated for 10 days by Western blot analysis. The assay is classed as tissue-based. To be noted: dose 0.313-5 µM, time 10.0 day. (A western blot detects proteins with antibodies after separation by electrophoresis.)

Assay [5] concerns the target T1, Histone deacetylase (Homo sapiens). The assay is classed as cell-based. To be noted: HCT-116, dose 0.063-1 µM, time 48.0 hrs.
Assay [6] shares this target. Nature of the assay: Inhibition of HDAC in patient-derived human Colorectal cancer organoid assessed as increase in acetyl-histone H3 level at 0.313 to 5 uM treated for 10 days by Western blot analysis. As to conditions: dose 0.313-5 µM, time 10.0 day. The assay is classed as tissue-based.
The target in assay [7] is Lysine-specific histone demethylase 1A (Homo sapiens) (UniProt O60341). Nature of the assay: Inhibition of LSD1 (unknown origin) demethylase-mediated FAD-dependent H2O2 production at 1 uM by fluorescence coupling enzyme assay.
Assay [8] shares this target. Nature of the assay: Inhibition of LSD1 in patient-derived human Colorectal cancer organoid at >2.5 uM treated for 10 days by IHC analysis. The assay is classed as tissue-based. As to conditions: time 10.0 day.
Assay [9] deals with T1, Histone deacetylase (Homo sapiens). The assay is classed as cell-based. As to conditions: HCT-116, dose 0.063-1 µM, time 48.0 hrs. This is another data set of the same source.

Active and inactive are the calls of the source. The rule behind the calls is not given here.

Regarding `O=C(CCCCCCC(=O)Nc1ccccc1)NO`, the inhibition result in assay [1] is “Active; Compound Might Have Indirect Lsd1 Inhibitory Effect”.
With `O=C(/C=C/c1cccc(S(=O)(=O)N[C@@H]2C[C@H]2c2ccccc2)c1)NO`, the inhibition entry in assay [2], in assay [3], in assay [4], in assay [6], in assay [1] and in [8] was “Active” in each case. Further, the inhibition entry was “Dose-dependent-effect” in assay [5], “Active; More Effective Than Standard Lsd1 Inhibitor At All Concentrations Tested” in [7] and “Dose-dependent-effect” in [9].
